Laboratory results: the COVID Moonshot data (paper PMC7615835)
Values joined by “and” are separate entries in the source; they are usually repeats but may differ in a detail not shown here. Identical values can stand only once.

Target: SARS-CoV-2 Main Protease (SARS-CoV-2) (UniProt P0DTD1)

**Q.** With `CC(C)(C)c1ccc(N(C(=O)c2ccco2)C(C(=O)NCCc2cccc(F)c2)c2coc3ccccc23)cc1` (centres undefined) as the molecule, how does the IC50 read?
**A.** > 99.5 µM

**Q.** For `COc1ccccc1NC1CN(C(=O)c2cc(=O)[nH]c3ccccc23)C1`, which IC50 is on record?
**A.** > 99.5 µM

**Q.** Which IC50 does the source give for `Cc1ccncc1NC(=O)C1(c2cccc(Cl)c2)CC1` here?
**A.** > 99.5 µM

**Q.** Which IC50 does the source give for `Cc1ccc(N(C(=O)c2cocn2)C(C(=O)NCCc2cccc(F)c2)c2cccnc2)cc1` (centres undefined) here?
**A.** 50.2 µM

**Q.** Which IC50 does the source give for `COc1cc(OC)[n+](C)c(C#N)n1` here?
**A.** > 99.5 µM

**Q.** With `O=C(Cc1cc(Cl)cc(N2CCN(c3ccc(Br)cn3)CC2)c1)Nc1cncc2ccccc12` as the molecule, how does the IC50 read?
**A.** 3.17 µM

**Q.** With `CC(C)OCc1cc(C(=O)N2CCC(C3CCNC3)CC2)ccc1F` (centres undefined) as the molecule, how does the IC50 read?
**A.** > 99.5 µM

**Q.** Which IC50 does the source give for `O=C(Nc1cncc2ccccc12)C1CN(CC(F)(F)F)Cc2ccc(Cl)cc21` (centres undefined) here?
**A.** 3.41 µM

**Q.** For `O=C1CCN(S(=O)(=O)c2cccc(F)c2)CC1`, which IC50 is on record?
**A.** > 99.5 µM

**Q.** `CCOC1CC2(C1)CC2N(C(=O)c1ccco1)C(C(=O)NCCc1cccc(F)c1)c1cccnc1` (centres undefined) was tested. Which IC50 did it give?
**A.** > 99.5 µM

**Q.** With `Cc1ccc(S(=O)(=O)NCC(=O)N2CCC(NS(N)(=O)=O)CC2)cc1` as the molecule, how does the IC50 read?
**A.** > 99.5 µM

**Q.** With `C=CC(=O)N(Cc1ccccc1Cl)C(C(=O)NC)c1cncc2ccccc12` (centres undefined) as the molecule, how does the IC50 read?
**A.** > 99.5 µM

**Q.** `CC(C)(C)c1ccc(N(C(=O)c2ccco2)C(C(=O)Nc2ccccc2)c2cccnc2)cc1` (centres undefined) was tested. Which IC50 did it give?
**A.** 11.2 µM

**Q.** `O=C(c1cc(=O)[nH]c2ccccc12)N1CCN(c2ccc(F)cc2)CC1` was tested. Which IC50 did it give?
**A.** 16.5 µM

**Q.** `O=C(Cc1cc(Cl)cc(NCc2ccc(-c3ccccc3)cc2)c1)Nc1cncc2ccccc12` was tested. Which IC50 did it give?
**A.** 1.53 µM

**Q.** Which IC50 does the source give for `CC(C)(C)c1ccc(N(C(=O)c2cocn2)C(C(=O)NC2CCOC2)c2cccnc2)cc1` (centres undefined) here?
**A.** 2.77 µM

**Q.** With `COc1cc(Cl)cc2c1OCC[C@H]2C(=O)Nc1cncc2ccccc12` (stereo in doubt) as the molecule, how does the IC50 read?
**A.** > 99.5 µM

**Q.** How did the IC50 turn out when `Cc1ccc(C(=O)Nc2c(-c3cnn(C)c3)nc3ccccn23)cn1` was run?
**A.** > 99.5 µM

**Q.** For `Cc1ccncc1NC(=O)Cc1cccc(F)c1`, which IC50 is on record?
**A.** 96.9 µM and 94.8 µM

**Q.** How did the IC50 turn out when `NC(=O)CN1Cc2ccc(Cl)cc2C(C(=O)Nc2cncc3ccccc23)C1` (centres undefined) was run?
**A.** 0.109 µM and 0.118 µM and 0.13 µM

**Q.** With `CC(C)Oc1ccc(N(C(=O)c2cnc[nH]2)C(C(=O)NCCc2cccc(F)c2)c2cccnc2)cc1` (centres undefined) as the molecule, how does the IC50 read?
**A.** 0.857 µM and 0.592 µM

**Q.** For `O=C1CC(NC(=O)C2CCOc3ccc(Cl)cc32)CN1` (centres undefined), which IC50 is on record?
**A.** > 99.5 µM

**Q.** `C[C@H]1CN(c2cc(Cl)cc(CC(=O)Nc3cncc4ccccc34)c2)CCN1C(=O)OC(C)(C)C` (stereo in doubt) was tested. Which IC50 did it give?
**A.** 2.61 µM

**Q.** `Cc1ccc(C(Cc2cnn(C)c2)C(=O)Nc2n[nH]c3ccccc23)cc1` (centres undefined) was tested. Which IC50 did it give?
**A.** > 99.5 µM

**Q.** How did the IC50 turn out when `O=C(CC1(C(=O)Nc2cncc3ccccc23)CCOc2ccc(Cl)cc21)N1CCCCC1c1nnc[nH]1` (centres undefined) was run?
**A.** 0.437 µM

**Q.** With `O=C(Cc1cncc2ccccc12)N1CCOc2ccc(Cl)cc21` as the molecule, how does the IC50 read?
**A.** 6.05 µM

**Q.** For `Cc1nc2ccc(NS(=O)(=O)c3cccc4nonc34)cc2o1`, which IC50 is on record?
**A.** > 99.5 µM

**Q.** `CN(c1cc(Cl)cc(CC(=O)Nc2cncc3ccccc23)c1)[C@@H]1CCN(Cc2ccccc2)C1` (stereo in doubt) was tested. Which IC50 did it give?
**A.** 2.04 µM

**Q.** `CC(C)(C)c1cnc(N(C(=O)c2ccco2)C(C(=O)NCCc2cccc(F)c2)c2cccnc2)s1` (centres undefined) was tested. Which IC50 did it give?
**A.** 3.94 µM

**Q.** How did the IC50 turn out when `CC(C)(C)c1ccc(N(C(=O)c2sc(N3CCOCC3)nc2Cl)C(C(=O)NCCc2cccc(F)c2)c2cccnc2)cc1` (centres undefined) was run?
**A.** > 99.5 µM

**Q.** With `O=C(Cc1cc(Cl)cc(Nc2ncc(Br)nc2Cl)c1)Nc1cncc2ccccc12` as the molecule, how does the IC50 read?
**A.** 1.71 µM

**Q.** With `O=C(Cc1cc(Cl)cc(Nc2cc(Br)ccc2F)c1)Nc1cncc2ccccc12` as the molecule, how does the IC50 read?
**A.** 1.9 µM

**Q.** With `CN(CCO)S(=O)(=O)N1Cc2ccc(Cl)cc2C2(CCN(c3cncc4ccccc34)C2=O)C1` (centres undefined) as the molecule, how does the IC50 read?
**A.** 0.699 µM

**Q.** Which IC50 does the source give for `C[C@H](Nc1cc(Cl)cc(CC(=O)Nc2cncc3ccccc23)c1)c1ccc(Br)cc1` (stereo in doubt) here?
**A.** 3.77 µM

**Q.** With `O=C(NCCc1cccc(F)c1)C(c1cccnc1)N(C(=O)c1ccco1)C1CCN(c2ccccc2)CC1` (centres undefined) as the molecule, how does the IC50 read?
**A.** 79.6 µM

**Q.** How did the IC50 turn out when `Cc1cc(C(F)(F)F)nc2n[nH]c(NC(=O)Cc3cccc(Cl)c3)c12` was run?
**A.** > 99.5 µM

**Q.** With `O=C(NNc1cc(O)nc2ncccc12)c1ccnc2ccccc12` as the molecule, how does the IC50 read?
**A.** > 99.5 µM

**Q.** `COC(=O)CCSc1cc(Cl)ccc1N(C(=O)c1ccco1)C(C(=O)NCCc1cccc(F)c1)c1cccnc1` (centres undefined) was tested. Which IC50 did it give?
**A.** 16.6 µM

**Q.** Which IC50 does the source give for `O=C(NCCc1cccc(F)c1)C(c1cccnc1)N(C(=O)c1cocn1)c1ccc(N2CCCS2(=O)=O)cc1` (centres undefined) here?
**A.** 27.8 µM

**Q.** How did the IC50 turn out when `O=C(CCl)N1CCN(S(=O)(=O)c2ccsc2)[C@H](C(=O)N2CCOCC2)C1` (stereo in doubt) was run?
**A.** 2.88 µM

**Q.** How did the IC50 turn out when `CNC(=O)CN1CC(C(=O)Nc2cncc3cc(NS(C)(=O)=O)ccc23)c2cc(Cl)ccc2C1=O` (centres undefined) was run?
**A.** < 0.05 µM and 0.0442 µM

**Q.** Which IC50 does the source give for `O=C(NCCc1cccc(F)c1)C(c1cccnc1)N(C(=O)c1cnc[nH]1)c1ccc(OC(F)F)cc1` (centres undefined) here?
**A.** 22.1 µM

**Q.** With `CC(C)(C)c1cnc(N(C(=O)c2cocn2)C(C(=O)NCCc2cccc(F)c2)c2cccnc2)o1` (centres undefined) as the molecule, how does the IC50 read?
**A.** 32.4 µM

**Q.** How did the IC50 turn out when `O=C(Cc1cccc(Cl)c1)Nc1nnn[nH]1` was run?
**A.** 45.3 µM

**Q.** With `COc1ccc(Cl)cc1N1C(=O)CN(Cc2cc(=O)[nH]c3ccccc23)C1=O` as the molecule, how does the IC50 read?
**A.** > 99.5 µM

**Q.** `CN(Cc1ccc(Cl)cc1)c1cc(Cl)cc(CC(=O)Nc2cncc3ccccc23)c1` was tested. Which IC50 did it give?
**A.** 2.42 µM

**Q.** How did the IC50 turn out when `O=C(Nn1cnc2ccccc21)C(Cc1cccc(Cl)c1)c1ccc(N2CCOCC2)cc1` (centres undefined) was run?
**A.** > 99.5 µM

**Q.** With `O=C(NCCc1cccc(F)c1)C(c1cccnc1)N(C(=O)c1cocn1)C1Cc2ccccc21` (centres undefined) as the molecule, how does the IC50 read?
**A.** > 99.5 µM

**Q.** How did the IC50 turn out when `C=CC(=O)N(Cc1ccccc1Cl)C(C(=O)NC(C)(C)C)c1cncc2ccccc12` (centres undefined) was run?
**A.** > 99.5 µM
